Source: patent publication US20230146455A1, “TREATMENT OF INFLAMMATORY DISEASES WITH PEPTIDES AND PHARMACEUTICAL COMPOSITIONS” (Yuyu Pharma, Inc., priority 2020, published 2023)
Several values for one entry are separate records, joined by “and”; a condition that tells them apart may be missing. Equal entries are not always repeated. Where a SMILES comes first, the peptide text is derived from it. [ ]: non-standard residue; d: D form. Hyp = O=C(O)[C@@H]1C[C@@H](O)CN1

Test system: IL-2
Assay: Example 9 Luminex, LPS hPBMCs: IL-2
Assay type: cell-based, human
Conditions: for IL-2 Concentration: dilution 2.0
Method: Treatment Human PBMCs were pretreated with YY-101, YDE-011 and YDE-043 or reference compound; Xiidra® at various concentration (ranging from 1 nM to 100 uM) for 2 h before stimulation. An equal volume of 0.5% DMSO was used as a vehicle control. Then, the cells were treated with LPS at 5 ug/ml. The supernatants from treated cells were harvested at 24 h and placed in a 96 well for Luminex cytokine & chemokine profiling using a Luminex 200 multiplex assay (Luminex; R&D system, USA).
The main study arm with triplicate wells per group in a 24-well plate: • 1. Blank • 2. PBMC: 0.5% DMSO • 3. PBMC+LPS (5 ug/ml) • 4. PBMC+YY-101 100 uM • 5. PBMC+YY-101 10 uM • 6. PBMC+YY-101 1 uM • 7. PBMC+YY-101 0.1 uM • 8. PBMC+YY-101 0.01 uM • 9. PBMC+LPS (5 ug/ml)+Xiidra®100 uM • 10. PBMC+LPS (5 ug/ml)+Xiidra® 10 uM • 11. PBMC+LPS (5 ug/ml)+Xiidra® 1 uM • 12. PBMC+LPS (5 ug/ml)+Xiidra®0.1 uM • 13. PBMC+LPS (5 ug/ml)+Xiidra®0.01 uM • 14. PBMC+LPS (5 ug/ml)+Xiidra®0.001 uM • 15. PBMC+LPS (5 ug/ml)+YY-101 100 uM • 16. PBMC+LPS (5 ug/ml)+YY-101 10 uM • 17. PBMC+LPS (5 ug/ml)+YY-101 1 uM • 18. PBMC+LPS (5 ug/ml)+YY-101 0.1 uM • 19. PBMC+LPS (5 ug/ml)+YY-101 0.01 uM • 20. PBMC+LPS (5 ug/ml)+YY-101 0.001 uM • 21. PBMC+LPS (5 ug/ml)+YDE-011 100 uM • 22. PBMC+LPS (5 ug/ml)+YDE-011 10 uM • 23. PBMC+LPS (5 ug/ml)+YDE-011 1 uM • 24. PBMC+LPS (5 ug/ml)+YDE-011 0.1 uM • 25. PBMC+LPS (5 ug/ml)+YDE-011 0.01 uM • 26. PBMC+LPS (5 ug/ml)+YDE-011 0.001 uM • 27. PBMC+LPS (5 ug/ml)+YDE-043 100 uM • 28. PBMC+LPS (5 ug/ml)+YDE-043 10 uM • 29. PBMC+LPS (5 ug/ml)+YDE-043 1 uM • 30. PBMC+LPS (5 ug/ml)+YDE-043 0.1 uM • 31. PBMC+LPS (5 ug/ml)+YDE-043 0.01 uM • 32. PBMC+LPS (5 ug/ml)+YDE-043 0.001 uM
Multiplex assay was used to measure 30 cytokines and chemokines. The 1:2, 1:10 and 1:200 diluted cell supernatant and serial dilution of the standard were dispensed into a 96 well plate at 50 ul/well. Then, the pre-mixed cocktail of antibody-coated magnetic beads was dispensed at 50 ul/well and incubated at room temperature for 2 h in a horizontal orbital microplate shaker at 800±500 rpm. The beads were washed using a magnetic device to prevent loss. The biotin-antibody was dispensed in 50 ul of each well and incubated at room temperature for 1 h in a shaker at 800±500 rpm. After washing, streptavidin-PE was added at 50 ul/well and incubated at room temperature for 30 min in a shaker under the same conditions. Finally, after washing, wash buffer (100 ul/well) was added to the plate and incubated in a shaker for 2 min. The Luminex™ 200 setting were set according to the manufacturer's protocol. The data was calculated with a standard five-parameter logistic nonlinear regression analysis of the data (xPonent software 4.2, USA). The levels of cytokine/chemokine are normalized to the live cell counts (1×10^5 cells/mL) and presented as concentrations per mL (pg/mL or ng/mL).

[1] = PBMC + LPS(5 ug/ml) + test article 0.001 uM, Mean
[2] = PBMC + LPS(5 ug/ml) + test article 0.001 uM, single replicates
[3] = PBMC + LPS(5 ug/ml) + test article 0.01 uM, Mean
[4] = PBMC + LPS(5 ug/ml) + test article 0.01 uM, single replicates
[5] = PBMC + LPS(5 ug/ml) + test article 0.1 uM, Mean
[6] = PBMC + LPS(5 ug/ml) + test article 0.1 uM, single replicates
[7] = PBMC + LPS(5 ug/ml) + test article 1 uM, Mean
[8] = PBMC + LPS(5 ug/ml) + test article 1 uM, single replicates
[9] = PBMC + LPS(5 ug/ml) + test article 10 uM, Mean
[10] = PBMC + LPS(5 ug/ml) + test article 10 uM, single replicates
[11] = PBMC + LPS(5 ug/ml) + test article 100 uM, Mean
[12] = PBMC + LPS(5 ug/ml) + test article 100 uM, single replicates
[13] = PBMC + test article 0.01 uM, no LPS, Mean
[14] = PBMC + test article 0.01 uM, no LPS, single replicates
[15] = PBMC + test article 0.1 uM, no LPS, Mean
[16] = PBMC + test article 0.1 uM, no LPS, single replicates
[17] = PBMC + test article 1 uM, no LPS, Mean
[18] = PBMC + test article 1 uM, no LPS, single replicates
[19] = PBMC + test article 10 uM, no LPS, Mean
[20] = PBMC + test article 10 uM, no LPS, single replicates
[21] = PBMC + test article 100 uM, no LPS, Mean
[22] = PBMC + test article 100 uM, no LPS, single replicates

CC(C)C[C@H](NC(=O)CNC(=O)[C@H](CC(=O)O)NC(=O)[C@H](CCC(N)=O)NC(=O)CNC(=O)[C@@H]1C[C@@H](O)CN1)C(=O)N[C@@H](C)C(=O)NCC(=O)N1CCC[C@H]1C(=O)N[C@@H](CCCCN)C(=O)O [YY-101] (H-[Hyp]GQDGLAGPK-OH; N-terminus and C-terminus assumed)
IL-2 conc/live cell [1]: 0.9 pg/10^5
MFI, Bead name: IL-2 [1]: 16.3
IL-2 Concentration [1]: 5.7 pg/mL
IL-2 Concentration [2]: 3.4 pg/mL and 7.6 pg/mL and 6.2 pg/mL
IL-2 conc/live cell [2]: 0.6 pg/10^5 and 1.1 pg/10^5 and 0.9 pg/10^5
MFI, Bead name: IL-2 [2]: 13.0 and 19.0 and 17.0
IL-2 conc/live cell [3]: 1.4 pg/10^5
MFI, Bead name: IL-2 [3]: 20.3
IL-2 Concentration [3]: 8.6 pg/mL
IL-2 Concentration [4]: 6.9 pg/ml (2×) and 11.8 pg/ml
IL-2 conc/live cell [4]: 1.1 pg/10^5 (2×) and 2.0 pg/10^5
MFI, Bead name: IL-2 [4]: 18.0 (2×) and 25.0
IL-2 conc/live cell [5]: 0.0 pg/10^5
MFI, Bead name: IL-2 [5]: 6.3
IL-2 conc/live cell [6]: 0.0 pg/10^5
MFI, Bead name: IL-2 [6]: 8.0 (2×) and 3.0
IL-2 conc/live cell [7]: 0.6 pg/10^5
MFI, Bead name: IL-2 [7]: 13.7
IL-2 Concentration [7]: 3.8 pg/mL
IL-2 Concentration [8]: 5.2 pg/mL and 3.7 pg/mL and 2.6 pg/mL
IL-2 conc/live cell [8]: 0.8 pg/10^5 and 0.5 pg/10^5 and 0.4 pg/10^5
MFI, Bead name: IL-2 [8]: 15.5 and 13.5 and 12.0
IL-2 conc/live cell [9]: 0.8 pg/10^5
MFI, Bead name: IL-2 [9]: 15.7
IL-2 Concentration [9]: 5.3 pg/mL
IL-2 Concentration [10]: 8.0 pg/mL and 4.1 pg/mL and 3.7 pg/mL
IL-2 conc/live cell [10]: 1.3 pg/10^5 and 0.6 pg/10^5 and 0.5 pg/10^5
MFI, Bead name: IL-2 [10]: 19.5 and 14.0 and 13.5
IL-2 conc/live cell [11]: 0.1 pg/10^5
MFI, Bead name: IL-2 [11]: 9.0
IL-2 Concentration [11]: 1.1 pg/mL
IL-2 Concentration [12]: 1.9 pg/mL and 0.4 pg/mL
IL-2 conc/live cell [12]: 0.3 pg/10^5 and 0.1 pg/10^5 and 0.0 pg/10^5
MFI, Bead name: IL-2 [12]: 11.0 and 9.0 and 7.0
IL-2 conc/live cell [13]: 11.5 pg/10^5
MFI, Bead name: IL-2 [13]: 93.3
IL-2 Concentration [13]: 57.4 pg/mL
IL-2 Concentration [14]: 56.9 pg/mL and 57.9 pg/mL
IL-2 conc/live cell [14]: 10.9 pg/10^5 and 12.1 pg/10^5
MFI, Bead name: IL-2 [14]: 92.5 and 94.0
IL-2 conc/live cell [15]: 11.5 pg/10^5
MFI, Bead name: IL-2 [15]: 96.3
IL-2 Concentration [15]: 59.3 pg/mL
IL-2 Concentration [16]: 45.4 pg/mL and 73.2 pg/mL
IL-2 conc/live cell [16]: 10.3 pg/10^5 and 12.6 pg/10^5
MFI, Bead name: IL-2 [16]: 75.0 and 117.5
IL-2 conc/live cell [17]: 11.4 pg/10^5
MFI, Bead name: IL-2 [17]: 101.5
IL-2 Concentration [17]: 62.8 pg/mL
IL-2 Concentration [18]: 59.8 pg/mL and 65.7 pg/mL
IL-2 conc/live cell [18]: 10.9 pg/10^5 and 11.9 pg/10^5
MFI, Bead name: IL-2 [18]: 97.0 and 106.0
IL-2 conc/live cell [19]: 11.3 pg/10^5
MFI, Bead name: IL-2 [19]: 113.5
IL-2 Concentration [19]: 70.6 pg/mL
IL-2 Concentration [20]: 69.6 pg/mL and 71.5 pg/mL
IL-2 conc/live cell [20]: 10.9 pg/10^5 and 11.7 pg/10^5
MFI, Bead name: IL-2 [20]: 112.0 and 115.0
IL-2 conc/live cell [21]: 2.2 pg/10^5
MFI, Bead name: IL-2 [21]: 29.0
IL-2 Concentration [21]: 14.6 pg/mL
IL-2 Concentration [22]: 13.2 pg/mL and 16.0 pg/mL
IL-2 conc/live cell [22]: 2.1 pg/10^5 and 2.3 pg/10^5
MFI, Bead name: IL-2 [22]: 27.0 and 31.0
